Drawing on patent US7795290B2 (Genentech, Inc., priority 2004, dated 2010), this text covers Activity for 15 compounds.

In this test the target is T1, AKT1 (Homo sapiens, UniProt P31749).
T1 construct: purchased Upstate 14-276
T1 sequence (P31749 whole entry): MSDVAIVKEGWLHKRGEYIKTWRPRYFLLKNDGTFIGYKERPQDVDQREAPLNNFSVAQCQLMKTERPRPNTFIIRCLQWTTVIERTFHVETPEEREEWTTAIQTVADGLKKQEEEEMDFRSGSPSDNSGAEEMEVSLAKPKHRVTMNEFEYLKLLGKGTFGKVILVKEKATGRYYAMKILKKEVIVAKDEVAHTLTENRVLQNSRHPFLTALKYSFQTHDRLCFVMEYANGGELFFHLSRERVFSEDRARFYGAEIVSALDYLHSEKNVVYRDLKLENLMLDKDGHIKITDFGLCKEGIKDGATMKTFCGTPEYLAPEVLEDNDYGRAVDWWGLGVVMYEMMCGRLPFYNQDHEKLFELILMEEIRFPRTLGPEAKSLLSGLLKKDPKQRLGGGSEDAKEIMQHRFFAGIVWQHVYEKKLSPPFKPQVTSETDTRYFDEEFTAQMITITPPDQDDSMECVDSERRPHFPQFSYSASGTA
Description: HTS ATP-utilizing enzyme assay, off-chip mobility-shift (Caliper HTS 250). It counts as biochemical. Conditions: kinase named = inhibitory activity/selectivity; test compound 10 μM; active = greater than three-sigma from mean. The gist of the method:
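AKT1 activity was measured by off-chip mobility shift (Caliper HTS 250) as the ratio of peptide substrate to phosphorylated product. Test compound was at 10 μM, with 2.5 h incubation at 20–22° C. EDTA wells served as 100% control and DMSO wells as 0%. Hits were called at three-sigma limits.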
Turning to `O=C(c1ccco1)N(CCCCN1CCOCC1)c1nc(-c2cc(-c3ccccc3)no2)cs1` [N-(4-morpholinobutyl)-N-(4-(3-phenylisoxazol-5-yl)thiazol-2-yl)furan-2-carboxamide], the Activity result is reported as “AKT1”. The value for `O=C(c1cccs1)N(CCCCN1CCOCC1)c1nc(-c2cc(-c3ccccc3)no2)cs1` [N-(4-morpholinobutyl)-N-(4-(3-phenylisoxazol-5-yl)thiazol-2-yl)thiophene-2-carboxamide] was “AKT1”. For `O=C(c1cccs1)N(CCCN1CCCC1)c1nc(-c2ccccc2)cs1` [N-(4-phenylthiazol-2-yl)-N-(3-(pyrrolidin-1-yl)propyl)thiophene-2-carboxamide], the Activity entry was “AKT1”. The value for `Cc1nc(-c2cnccn2)sc1-c1csc(N(CCCN2CCOCC2)C(=O)c2cccs2)n1` [N-(4′-methyl-2′-(pyrazin-2-yl)-4,5′-bithiazol-2-yl)-N-(3-morpholinopropyl)thiophene-2-carboxamide] was “AKT1”; that for `CCc1nnc(NC(=O)c2csc(N(CCCN3CCOCC3)C(=O)c3cccs3)n2)s1` [N-(5-ethyl-1,3,4-thiadiazol-2-yl)-2-(N-(3-morpholinopropyl)thiophene-2-carboxamido)thiazole-4-carboxamide] was “AKT1”. In the case of `O=C(Nc1ccc2ncsc2c1)c1csc(N(CCCN2CCOCC2)C(=O)c2cccs2)n1` [N-(benzo[d]thiazol-6-yl)-2-(N-(3-morpholinopropyl)thiophene-2-carboxamido)thiazole-4-carboxamide], the Activity entry was “AKT1”. Next, `COc1ccc(-c2csc(N(Cc3ccco3)C(=O)c3cccs3)n2)cc1` [N-(furan-2-ylmethyl)-N-(4-(4-methoxyphenyl)thiazol-2-yl)thiophene-2-carboxamide]: “AKT1”; `CCOC(=O)C1CCCCN1CCCN(C(=O)c1cccs1)c1nc(-c2cc3ccccc3o2)cs1` (stereo not drawn) [ethyl 1-(3-(N-(4-(benzofuran-2-yl)thiazol-2-yl)thiophene-2-carboxamido)propyl)piperidine-2-carboxylate]: “AKT1”. With `CCOC(=O)C1CCCN(CCCN(C(=O)c2cccs2)c2nc(-c3cc4ccccc4o3)cs2)C1` (stereo not drawn) [ethyl 1-(3-(N-(4-(benzofuran-2-yl)thiazol-2-yl)thiophene-2-carboxamido)propyl)piperidine-3-carboxylate], the Activity result is recorded as “AKT1”. The value for `CCOC(=O)CC1CCCN(C(=O)CCCN(C(=O)c2cccs2)c2nc(-c3cc4ccccc4o3)cs2)C1` (stereo not drawn) [ethyl 2-(1-(4-(N-(4-(benzofuran-2-yl)thiazol-2-yl)thiophene-2-carboxamido)butanoyl)piperidin-3-yl)acetate] was “AKT1”; that for `CCOC(=O)CC1CCN(C(=O)CCCN(C(=O)c2cccs2)c2nc(-c3cc4ccccc4o3)cs2)CC1` [ethyl 2-(1-(4-(N-(4-(benzofuran-2-yl)thiazol-2-yl)thiophene-2-carboxamido)butanoyl)piperidin-4-yl)acetate] was “AKT1”; that for `CCOC(=O)Cc1csc(NC(=O)c2csc(N(CCCN3CCOCC3)C(=O)c3cccs3)n2)n1` [ethyl 2-(2-(2-(N-(3-morpholinopropyl)thiophene-2-carboxamido)thiazole-4-carboxamido)thiazol-4-yl)acetate] was “AKT1”. The value for `CCOC(=O)CN1CCN(CCCN(C(=O)c2cccs2)c2nc(-c3cc4ccccc4o3)cs2)CC1` [ethyl 2-(4-(3-(N-(4-(benzofuran-2-yl)thiazol-2-yl)thiophene-2-carboxamido)propyl)piperazin-1-yl)acetate] was “AKT1”.

As for `CCOC(=O)c1csc(N(CCCN2CCOCC2)C(=O)c2cccs2)n1` [ethyl 2-(N-(3-morpholinopropyl)thiophene-2-carboxamido)thiazole-4-carboxylate], the Activity entry was “AKT1”. Turning to `CCOC(=O)CC(C)(C)c1csc(N(CCCN2CCOCC2)C(=O)c2cccs2)n1` [ethyl 3-methyl-3-(2-(N-(3-morpholinopropyl)thiophene-2-carboxamido)thiazol-4-yl)butanoate], the Activity entry is on record as “AKT1”.
